The values that follow come from PubChem BioAssay (NCI).

Common to all, as to test: NCI tumour cell line growth inhibition, 48 h
In experiment [1] the test system is ACHN renal.
Experiment [2] concerns NCI-H226 lung.
Experiment [3] relates to NCI-H23 lung.
Experiment [4] deals with OVCAR-5 ovarian.
The test system of experiment [5] is RXF 393 renal.
Experiment [6] relates to SK-MEL-2 melanoma.
Experiment [7] concerns SK-OV-3 ovarian.
In experiment [8] the test system is TK-10 renal.
Experiment [9] has as its system UACC-62 melanoma.
Experiment [10] concerns MDA-MB-231 breast.

Structures are written as SMILES.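 Grown in 96-well plates, cells were treated for 48 hours with each compound at five concentrations. Insufficient inhibition: endpoint recorded as highest concentration tested. Abbreviation: GI50, concentration required for 50% inhibition of growth. TGI: total growth inhibition.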

`OCC[N+]12CCCN1CCC2`: the TGI in experiment [1], in experiment [2], in experiment [3], in [4], in [5] and in [6] was more than 100 µM in each case. For the same compound, the TGI in experiment [7], in experiment [8] and in experiment [9] was more than 100 µM in each case.

Turning to `O=C(O)c1ccc(C(O)(c2ccccc2)c2ccccc2)cc1`, the TGI in experiment [1], in experiment [10], in experiment [3], in experiment [4], in experiment [7] and in [8] was more than 100 µM in each case. The compound further had a TGI in experiment [9] of more than 100 µM.

For the compound `COc1ccc(C2CC(c3ccc(Nc4ccnc5cc(Cl)ccc45)cc3)=NN2C=O)cc1` (configuration not stated), the GI50 in experiment [1] is 7.02 µM; in experiment [10] it was 20.1 µM; in [2], more than 100 µM; in experiment [3], 50.6 µM; in experiment [4], more than 100 µM; in [5], 11.6 µM. For the same compound, the values for the GI50 in [7], in experiment [8] and in experiment [9] were more than 100 µM, 20.9 µM and 5.99 µM, respectively. In addition, the TGI in experiment [1], in [10], in experiment [2], in experiment [3], in experiment [4] and in experiment [5] was more than 100 µM in each case. Also, the TGI in experiment [7] was more than 100 µM; in [8], 48.2 µM; in [9], 49.8 µM.

In the case of `CCOC(=O)C1=C(C)NC(=O)NC1CN1C(=O)c2ccccc2C1=O` (configuration not stated), the GI50 in [1], in [10], in experiment [3], in [4], in [5] and in experiment [6] was more than 100 µM each time. Further, the GI50 in experiment [7], in experiment [8] and in experiment [9] was more than 100 µM each time. Moreover, the TGI in experiment [1], in experiment [10], in experiment [3], in experiment [4], in experiment [5] and in experiment [6] was more than 100 µM throughout. Moreover, the TGI in experiment [7], in experiment [8] and in experiment [9] was more than 100 µM each time.

For `CCCCNS(=O)(=O)c1n[nH]c(=O)[nH]c1=O`, the TGI in experiment [1], in [10], in experiment [2], in experiment [3], in experiment [4] and in experiment [5] was more than 100 µM in each case. Moreover, the TGI in [6], in experiment [7] and in experiment [9] was more than 100 µM in each case.

Consider `COc1cc([N+](=O)[O-])c(OC)cc1-c1nc2sc(C)cn2c1/C(N)=N/C(=N)N`, for which the GI50 in experiment [1] is 50.2 µM; in experiment [10], 16.1 µM; in experiment [2], 43.2 µM; in experiment [3] it was 89.6 µM; in [4] it was more than 100 µM; in experiment [5], 39.8 µM. Further, the GI50 in experiment [7] was more than 100 µM; in experiment [8] it was 20.3 µM; in experiment [9] it was 23.8 µM. The TGI in [1] is more than 100 µM; in experiment [10], 45.1 µM; in experiment [2], more than 100 µM; in experiment [3] it was more than 100 µM; in experiment [4], more than 100 µM; in experiment [5], more than 100 µM. The values for the TGI in experiment [7], in experiment [8] and in [9] were more than 100 µM, 50.4 µM and 52.4 µM, respectively.

As for `O=C(O)c1cc(=O)cc(C(=O)O)o1`, the GI50 in experiment [1], in experiment [2], in [3], in [4], in [5] and in experiment [6] was more than 100 µM throughout. In addition, the GI50 in experiment [7], in experiment [8] and in [9] was more than 100 µM throughout. The TGI in experiment [1], in [2], in experiment [3], in [4], in [5] and in [6] was more than 100 µM each time. Moreover, the TGI in [7], in experiment [8] and in [9] was more than 100 µM throughout.

With `CN(C)CCCSc1ccccc1NC1=C(Cl)C(=O)C(Nc2ccccc2SCCCN(C)C)=C(Cl)C1=O`, the GI50 in experiment [10] was 1.78 µM; in [2], 2.21 µM; in experiment [3] it was 1.75 µM; in experiment [4], 1.78 µM; in experiment [5] it was 1.92 µM; in experiment [6], 2.3 µM. The GI50 in experiment [7] is 12.5 µM; in experiment [8] it was 2.22 µM; in [9], 1.81 µM. The TGI in experiment [10] came out at 3.38 µM; in experiment [2] it was 4.32 µM; in [3], 3.74 µM; in [4], 3.29 µM; in experiment [5] it was 3.35 µM; in [6] it was 5.48 µM. In addition, the TGI in experiment [7] came out at 25 µM; in experiment [8] it was 3.7 µM; in experiment [9], 3.51 µM.

For the compound `Cc1[nH]c2ccccc2c1CC/C(=N\Nc1ccccc1)c1ccccc1`, the TGI in [1], in experiment [2], in experiment [3], in experiment [4], in [5] and in experiment [6] was more than 100 µM in each case. The TGI in experiment [7], in [8] and in experiment [9] was more than 100 µM in each case.

For `N#Cc1c(NC(=O)c2ccc(F)cc2)sc2c1CCCC2`, the GI50 in experiment [1], in experiment [10], in experiment [2], in experiment [3], in experiment [4] and in experiment [5] was more than 25 µM throughout. Also, the GI50 in experiment [7], in experiment [8] and in experiment [9] was more than 25 µM each time. Also, the TGI in [1], in experiment [10], in [2], in experiment [3], in experiment [4] and in experiment [5] was more than 25 µM each time. Moreover, the TGI in [7], in experiment [8] and in experiment [9] was more than 25 µM throughout.
